Data reported in patent publication US12077503B2, “Substituted cyclic amides and their use as herbicides” (FMC CORPORATION, priority 2015, dated 2024).

Assays:
Type in all cases: in vivo
Kochia (Kochia scoparia) [1] = test: Test A preemergence; conditions: Bassia scoparia, pre-emergence, 240 h, Preemergence
Method in brief: (§1)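 Compounds were formulated in a non-phytotoxic solvent mixture with surfactant and applied as a preemergence directed soil spray after seeding, or sprayed postemergence over plants 2 to 10 cm tall at the one- to two-leaf stage. Evaluation after about 10 d compared treated with untreated controls, using a scale from 0 (no effect) to 100 (complete control).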

[2] = tested on: barnyardgrass (Echinochloa crus-galli); test: Test A preemergence; conditions: Echinochloa crus-galli, pre-emergence, 240 h, Preemergence
Method in brief: as §1

[3] = tested on: giant foxtail (Setaria faberii); test: Test A preemergence; conditions: Setaria faberi, pre-emergence, 240 h, Preemergence
Method in brief: as §1

[4] = tested on: pigweed (Amaranthus retroflexus); test: Test A preemergence; conditions: Amaranthus retroflexus, pre-emergence, 240 h, Preemergence
[5] = tested on: ragweed (common ragweed, Ambrosia elatior); test: Test A preemergence; conditions: Ambrosia artemisiifolia, pre-emergence, 240 h, Preemergence
Method in brief: as §1

[6] = tested on: ryegrass, Italian (Italian ryegrass, Lolium multiflorum); test: Test A preemergence; conditions: Lolium multiflorum, pre-emergence, 240 h, Preemergence
Method in brief: as §1

[7] = tested on: Galium (catchweed bedstraw, Galium aparine); test: Test A postemergence; conditions: Galium, post-emergence, 240 h, Postemergence, read-out: Galium plant response rating (0 to 100 scale)
Method in brief: as §1

Kochia (Kochia scoparia) [8] = test: Test A postemergence; conditions: Bassia scoparia, post-emergence, 240 h, Postemergence, read-out: Kochia plant response rating (0 to 100 scale)
Method in brief: as §1

[9] = tested on: barnyardgrass (Echinochloa crus-galli); test: Test A postemergence; conditions: Echinochloa crus-galli, post-emergence, 240 h, Postemergence
Method in brief: as §1

[10] = tested on: blackgrass (Alopecurus myosuroides); test: Test A postemergence; conditions: Alopecurus myosuroides, post-emergence, 240 h, Postemergence, read-out: Blackgrass plant response rating (0 to 100 scale)
Method in brief: as §1

corn (Zea mays) = test: Test A postemergence; conditions: Zea mays, post-emergence, 240 h, Postemergence, read-out: Corn plant response rating (0 to 100 scale)
Method in brief: as §1

[11] = tested on: giant foxtail (Setaria faberii); test: Test A postemergence; conditions: Setaria faberi, post-emergence, 240 h, Postemergence, read-out: Foxtail, Giant plant response rating (0 to 100 scale)
Method in brief: as §1

[12] = tested on: pigweed (Amaranthus retroflexus); test: Test A postemergence; conditions: Amaranthus retroflexus, post-emergence, 240 h, Postemergence, read-out: Pigweed plant response rating (0 to 100 scale)
Method in brief: as §1

[13] = tested on: ragweed (common ragweed, Ambrosia elatior); test: Test A postemergence; conditions: Ambrosia artemisiifolia, post-emergence, 240 h, Postemergence, read-out: Ragweed plant response rating (0 to 100 scale)
Method in brief: as §1

[14] = tested on: ryegrass, Italian (Italian ryegrass, Lolium multiflorum); test: Test A postemergence; conditions: Lolium multiflorum, post-emergence, 240 h, Postemergence, read-out: Ryegrass, Italian plant response rating (0 to 100 scale)
Method in brief: as §1

[15] = tested on: wheat (Triticum aestivum); test: Test A postemergence; conditions: Triticum aestivum, post-emergence, 240 h, Postemergence, read-out: Wheat plant response rating (0 to 100 scale)
Method in brief: as §1

[16] = tested on: barnyardgrass (Echinochloa crus-galli); test: Test B flooded paddy test; conditions: Echinochloa crus-galli, 360 h, Flood, 250 g ai/ha; visually evaluated after 13 to 15 d; read-out: Plant response rating, Barnyardgrass (0 to 100 scale where 0 is no effect and 100 is complete control)
Method in brief: (§2)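 Evaluation by eye, against controls, occurred 13–15 d post-treatment in a greenhouse, using a 0 (no effect) to 100 (complete control) scale. Application was into the paddy water, 3 cm deep over the soil, on 2-leaf plants.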

[17] = tested on: ducksalad (Heteranthera limosa); test: Test B flooded paddy test; conditions: Heteranthera limosa, 360 h, Flood, 250 g ai/ha; visually evaluated after 13 to 15 d; read-out: Plant response rating, Ducksalad (0 to 100 scale where 0 is no effect and 100 is complete control)
Method in brief: as §2

rice (Oryra sativa) = test: Test B flooded paddy test; conditions: Oryza sativa, 360 h, Flood, 250 g ai/ha; visually evaluated after 13 to 15 d; read-out: Plant response rating, Rice (0 to 100 scale where 0 is no effect and 100 is complete control)
Method in brief: as §2

[18] = tested on: sedge, umbrella (small-flower umbrella sedge, Cyperus difformis); test: Test B flooded paddy test; conditions: Cyperus difformis, 360 h, Flood, 250 g ai/ha; visually evaluated after 13 to 15 d; read-out: Plant response rating, Sedge, Umbrella (0 to 100 scale where 0 is no effect and 100 is complete control)
Method in brief: as §2

[19] = 125 g ai/ha, visual rating about 10 d after treatment
[20] = 31 g ai/ha, 0 is no effect, 100 is complete control

## CN1C[C@H](c2ccc3c(c2)OC(F)(F)O3)[C@@H](C(=O)Nc2cnccc2C(F)(F)F)C1=O [Compound 1354]
Kochia (Kochia scoparia) [1]; 31 g ai/ha, 0 to 100 scale where 0 is no effect and 100 is complete control, read-out: Kochia plant response rating
  pest or weed control at 31 g/ha: 0%
Kochia (Kochia scoparia) [1]; 125 g ai/ha, 0 to 100 scale (0 no effect, 100 complete control), read-out: Plant response rating, Kochia
  pest or weed control at 125 g/ha: 20%
[2]; 31 g ai/ha, 0 to 100 scale where 0 is no effect and 100 is complete control, read-out: Barnyardgrass plant response rating
  pest or weed control at 31 g/ha: 0%
[2]; 125 g ai/ha, 0 to 100 scale (0 no effect, 100 complete control), read-out: Plant response rating, Barnyardgrass
  pest or weed control at 125 g/ha: 80%
[3]; 31 g ai/ha, 0 to 100 scale where 0 is no effect and 100 is complete control, read-out: Foxtail, Giant plant response rating
  pest or weed control at 31 g/ha: 30%
[3]; 125 g ai/ha, 0 to 100 scale (0 no effect, 100 complete control), read-out: Plant response rating, Foxtail, Giant
  pest or weed control at 125 g/ha: 100%
[4]; 31 g ai/ha, 0 to 100 scale where 0 is no effect and 100 is complete control, read-out: Pigweed plant response rating
  pest or weed control at 31 g/ha: 0%
[4]; 125 g ai/ha, 0 to 100 scale (0 no effect, 100 complete control), read-out: Plant response rating, Pigweed
  pest or weed control at 125 g/ha: 20%
[5]; 31 g ai/ha, 0 to 100 scale where 0 is no effect and 100 is complete control, read-out: Ragweed plant response rating
  pest or weed control at 31 g/ha: 20%
[5]; 125 g ai/ha, 0 to 100 scale (0 no effect, 100 complete control), read-out: Plant response rating, Ragweed
  pest or weed control at 125 g/ha: 0%
[6]; 31 g ai/ha, 0 to 100 scale where 0 is no effect and 100 is complete control, read-out: Ryegrass, Italian plant response rating
  pest or weed control at 31 g/ha: 0%
[6]; 125 g ai/ha, 0 to 100 scale (0 no effect, 100 complete control), read-out: Plant response rating, Ryegrass, Italian
  pest or weed control at 125 g/ha: 20%
[7]; [19]
  pest or weed control at 125 g/ha: 40%
[7]; [20]
  pest or weed control at 31 g/ha: 20%
Kochia (Kochia scoparia) [8]; [19]
  pest or weed control at 125 g/ha: 20%
Kochia (Kochia scoparia) [8]; [20]
  pest or weed control at 31 g/ha: 0%
[9]; 125 g ai/ha, visual rating about 10 d after treatment, read-out: Barnyardgrass plant response rating (0 to 100 scale, 0 no effect, 100 complete control)
  pest or weed control at 125 g/ha: 20%
[9]; 31 g ai/ha, 0 is no effect, 100 is complete control, read-out: Barnyardgrass plant response rating (0 to 100 scale)
  pest or weed control at 31 g/ha: 0%
[10]; [19]
  pest or weed control at 125 g/ha: 0%
[10]; [20]
  pest or weed control at 31 g/ha: 0%
Corn (Zea mays); [19]
  plant injury at 125 g/ha: 0%
Corn (Zea mays); [20]
  plant injury at 31 g/ha: 0%
[11]; [19]
  pest or weed control at 125 g/ha: 60%
[11]; [20]
  pest or weed control at 31 g/ha: 0%
[12]; [19]
  pest or weed control at 125 g/ha: 0%
[12]; [20]
  pest or weed control at 31 g/ha: 0%
[13]; [19]
  pest or weed control at 125 g/ha: 0%
[13]; [20]
  pest or weed control at 31 g/ha: 0%
[14]; [19]
  pest or weed control at 125 g/ha: 0%
[14]; [20]
  pest or weed control at 31 g/ha: 0%
[15]; [19]
  plant injury at 125 g/ha: 0%
[15]; [20]
  plant injury at 31 g/ha: 0%
[16]
  pest or weed control at 250 g/ha: 0%
[17]
  pest or weed control at 250 g/ha: 0%
Rice (Oryra sativa)
  pest or weed control at 250 g/ha: 0%
[18]
  pest or weed control at 250 g/ha: 0%
